The structures appear in SMILES notation. Where two headings read alike, the source gives them in different places.

The source of these data is patent US20150299233A1, “COMPOSITIONS AND METHODS COMPRISING RHENIUM FOR THE TREATMENT OF CANCERS” (Massachusetts Institute of Technology, priority 2014, published 2015).

The subject of assay [1] is A549 cells. Description: Intracellular ROS assay (DCFH-DA, flow cytometry). Particulars: 1, 2, shikonin 20 μM for 12 h; H2O2 1 mM for 1 h. The class given is cell-based, human. As to the method: Characterization of Necroptotic Features. Having established that necrosome formation is a determinant of 1 and 2 activity, additional studies were performed to understand the cascade of events leading from necrosome formation to cell death. Necrosomes generate abnormally high levels of mitochondrial ROS, leading to ATP depletion and eventual degradation of the mitochondrial membrane potential. With this fact in mind, intracellular ROS production was quantified by flow cytometry using 6-carboxy-2′,7′-dichlorodihydrofluorescein diacetate (DCFH-DA), a well-established ROS indicator.
In FIG. 2: (A) Representative histograms displaying the green fluorescence emitted by DCFH-DA-stained A549 cells (i) and A549 cells treated with 1(20 μM for 12 h) (iii) or 1 (20 μM for 12 h) with nectrostatin-1 (60 μM for 12 h) (ii). (B) Representative histograms displaying the green fluorescence emitted by DCFH-DA-stained A549 cells (i) and A549 cells treated with 2 (20 μM for 12 h) (iii) or 2 (20 μM for 12 h) with nectrostatin-1 (60 μM for 12 h) (ii). (C) Representative histograms displaying the green fluorescence emitted by DCFH-DA-stained A549 cells (i) and A549 cells treated withH2O2 (1mM for 1 h) (iii). (D) Representative histograms displaying the green fluorescence emitted by DCFH-DA-stained A549 cells (i) and A549 cells treated with shikonin (20 μM for 12 h) (iii).
Intracellular ROS Assay. Untreated and treated A549 cells (1.5×10^6 cells/well) grown in six-well plates were incubated with 6-carboxy-2′,7′-dichlorodihydrofluorescein diacetate (20 μM) for 30 min. The cells were then washed with PBS (1 mL x 3), harvested, and analyzed by using a FACSCalibur-HTS flow cytometer (BD Biosciences) (20 000 events per sample were acquired). The FL1 channel was used to assess intracellular ROS levels. Cell populations were analyzed using the FlowJo software (Tree Star).

The subject of assay [2] is DU 145 (prostate carcinoma). Description: MTT cytotoxicity assay, DU 145 cells. It counts as cell-based, human. The following applies: Table 2; cisplatin-resistant cell line; 72 h exposure; read-out: IC50 DU 14S prostate carcinoma. (Tetrazolium assays rely on reduction of a dye to a coloured formazan, in cell work by metabolically active cells.)
Assay [3] relates to MRC-5. Particulars: Table 1; 72 h exposure; value taken from ref 4S; read-out: IC50 MRC-5 lung fibroblast; cited from earlier work.
For the next assay, the system named is NTERA-2. Description: MTT cytotoxicity assay, NTERA-2 cells. It counts as cell-based, human. The following applies: Table 1; 72 h exposure; ± standard deviation; read-out: IC50 NTERA-2 testis carcinoma.
Assay [4] concerns MDA-MB-231 (breast adenocarcinoma). Description: MTT cytotoxicity assay, MDA-MB-231 cells. The class given is cell-based, human. The following applies: Table 2; cisplatin-resistant cell line; 72 h exposure; read-out: IC50 MDA-M8-231 breast adenocarcinoma.
In assay [5] the test system is cisplatin-sensitive cells (A2780). Put plainly: MTT cytotoxicity assay, A2780 cells. It counts as cell-based, human. The following applies: Table A; average of three independent determinations; read-out: IC50 A2780 (ovarian).
For assay [6], the system named is PC-3 (prostate adenocarcinoma). Description: MTT cytotoxicity assay, PC-3 cells. The class given is cell-based, human. Particulars: Table 2; cisplatin-resistant cell line; 72 h exposure.
The test system of assay [7] is MRC-5. Put plainly: MTT cytotoxicity assay, MRC-5 normal lung fibroblasts. The class given is cell-based, human. Particulars: Table A; average of three independent determinations; read-out: IC50 MRC5 (lung normal).
Experimental: (§1) In vitro toxicity of the rhenium (v) oxo complexes, 1 and 2 towards a panel of human cell lines was determined using the colorimetic MTT [[3-(4,5-dimethylithiazol-2-yl)-2,5-diphenyltetrazolium bromide] assay.
(§2) The in vitro effect of rhenium(V) oxo complexes 1 and 2 toward a panel of human cell lines was determined by the colorimetric MTT [3-(4,5-dimethylthiazol-2-yl)-2,5-diphenyltetrazolium bromide] assay. […] The IC50 values, or concentration required to induce 50% cell death, were derived from dose—response curves and are summarized in Table 1.
(§3) Cells (2×10^3 cells/well) were seeded in a 96-well plate. […] 1 and 2 were prepared as 10 mM solutions in DMSO and diluted using media. The final concentration of DMSO in each well was 0.5%, and this amount was also present in the untreated control. After 72 h, the medium was removed, 200 μL of a 0.4 mg/mL solution of MTT in DMEM, RPMI, or McCoy's 5A was added, and the plate was incubated for an additional 1-2 h. The DMEM/MTT, RPMI/MTT, or McCoy's 5A/MTT mixture was aspirated, and 200 μL of DMSO was added to dissolve the resulting purple formazan crystals. The absorbance of the solution wells was read at 550 nm. Absorbance values were normalized to DMSO-containing control wells and plotted as the concentration of test compound versus % cell viability. IC50 values were interpolated from the resulting dose-dependent curves. The reported IC50 values are the average from at least three independent experiments, each of which consisted of six replicates per concentration level.
The next assay deals with confluent A549 cells. Description: MTT cytotoxicity assay, confluent A549 cells. It counts as cell-based, human. Particulars: Table 2; confluent cells; 72 h exposure; read-out: IC50 A549 (confluent) lung carcinoma.
The subject of assay [8] is MCF-7 (breast adenocarcinoma). Put plainly: MTT cytotoxicity assay, MCF-7 cells. The class given is cell-based, human. Particulars: Table 2; cisplatin-resistant cell line; 72 h exposure.
The test system of assay [9] is cisplatin-sensitive cells (A2780). The following applies: Table 1; 72 h exposure; value taken from ref 4S; read-out: IC50 A2780 ovarian carcinoma; cited from earlier work.
Assay [10] deals with HeLa cervical adenocarcinoma cells. Description: MTT cytotoxicity assay, HeLa cells. The class given is cell-based, human.
For assay [11], the system named is A549 cells. Put plainly: MTT cytotoxicity assay, A549 cells. The class given is cell-based, human.
Experimental: as §1, §2, §3
Assay [12] concerns HT-29 (colorectal adenocarcinoma). Description: MTT cytotoxicity assay, HT-29 cells. The class given is cell-based, human. The following applies: Table 2; cisplatin-resistant cell line; 72 h exposure.
Experimental: Cytotoxicity MTT Assay. […] Cells (2×10^3 cells/well) were seeded in a 96-well plate. […] The final concentration of DMSO in each well was 0.5%, and this amount was also present in the untreated control. After 72 h, the medium was removed, 200 μL of a 0.4 mg/mL solution of MTT in DMEM, RPMI, or McCoy's 5A was added, and the plate was incubated for an additional 1-2 h. The DMEM/MTT, RPMI/MTT, or McCoy's 5A/MTT mixture was aspirated, and 200 μL of DMSO was added to dissolve the resulting purple formazan crystals. The absorbance of the solution wells was read at 550 nm. Absorbance values were normalized to DMSO-containing control wells and plotted as the concentration of test compound versus % cell viability. IC50 values were interpolated from the resulting dose-dependent curves. The reported IC50 values are the average from at least three independent experiments, each of which consisted of six replicates per concentration level.
The test system of assay [13] is cisplatin-resistant ovarian carcinoma cells (A2780CP70). Description: MTT cytotoxicity assay, A2780CP70 cells. The class given is cell-based, human.
Assay [14] concerns U2OS. Particulars: Table 1; 72 h exposure; value taken from ref 4S; read-out: IC50 U2OS bone osteosarcoma; cited from earlier work.
The test system of assay [15] is U2OS. Put plainly: MTT cytotoxicity assay, U2OS cells. Particulars: Table A; average of three independent determinations; read-out: IC50 U2OS (bone). It counts as cell-based, human.

`OO` [Compound H2O2, H2O2, reference compound]: the “intracellular ROS versus untreated control cells” value in the assay with A549 cells [1] is recorded as “significantly higher levels of measurable ROS”.
With `N.N.[Cl][Pt][Cl]` [cisplatin, reference compound], the IC50 (in general, the concentration needed to halve the response being measured) was over 100 µM in assay [2]; 5.3 ± 0.6 µM in the assay on MRC-5 [3]; 0.385 ± 0.049 µM with NTERA-2; 43.6 ± 7.07 µM in [4]; 1.41 ± 0.037 µM in [5]; 10.2 ± 0.919 µM in [6]. The IC50 is 11.1 ± 1.33 µM in the assay on MRC-5 [7]; 9.42 ± 1.94 µM with confluent A549 cells; 9.74 ± 0.537 µM in assay [8]; 0.7 ± 0.2 µM in assay [9]; 4.1 ± 0.113 µM in assay [10] (Table 1, 72 h exposure, ± standard deviation, read-out: IC50 HeLa cervical adenocarcinoma); 4.1 ± 0.011 µM in assay [10] (Table A, average of three independent determinations, read-out: IC50 HeLa (cervical)). The concentration for half-maximal inhibition (IC50) with A549 cells [11] (Table 1, 72 h exposure, ± standard deviation, read-out: IC50 A549 lung carcinoma) was 3.23 ± 0.467 µM; in the assay with A549 cells [11] (Table A, average of three independent determinations, read-out: IC50 A549 (lung)), 2.74 ± 0.006 µM; in [12] it was 29.6 ± 1.33 µM; in assay [13] (Table 1, 72 h exposure, ± standard deviation, read-out: IC50 A2780CP70 ovarian carcinoma), 8.42 ± 0.205 µM; in assay [13] (Table A, average of three independent determinations, read-out: IC50 A280CP70 (ovarian)), 8.42 ± 0.205 µM; in the assay on U2OS [14], 4.6 ± 0.6 µM. In addition, the IC50 in the assay with U2OS [15] stood at 4.6 ± 0.6 µM.
